The values that follow come from patent publication US10689378B2, “Triazolopyridine compounds and uses thereof” (Novartis AG, priority 2016, dated 2020).

One assay has as its target T1, EED (1-441)-His protein (Homo sapiens, UniProt O75530).
T1 construct: 30 nM EED (1-441)-His protein
The experiment in a line: EED-H3K27Me3 peptide competition binding assay by AlphaScreen. Put shortly:
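Serially diluted compound (12 points, 3-fold) incubated 20 min with 30 nM EED(1-441)-His and 15 nM biotin-H3K27Me3(19-33) peptide in 25 mM HEPES pH 8, 0.02% Tween-20, 0.5% BSA. Ni-chelate acceptor/streptavidin donor beads (10 μg/mL each) added, 1 h rt dark; 615 nm emission normalized to controls, dose-response fit for IC50.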
On the technique in general: Bead proximity is the source of the signal in Alpha formats.

Assay [1] has as its system H3K27 methylation in G401 cell. The assay can be described thus: ELISA (H3K27 methylation) assay in G401 cells. In kind it is cell-based, human. The conditions noted are these: Homo sapiens. Put shortly:
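IC50 from dose-response fit of percent inhibition relative to DMSO, using H3K27me3/me2 ELISA signal (ECL) normalized to histone H3. Histones HCl-extracted after 48 h compound exposure of G401 cells at up to 20 μM, 8- or 12-point 3-fold series.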
On the technique in general: In an ELISA, binding on a coated surface is turned into a signal by an enzyme label.

Setting [2] is: read-out: (a) IC50, EED Alphascreen binding Qualified.
[3] abbreviates: G-401, read-out: (c) IC50, ELISA Qualified.
The mark [4] stands for this setting: EED-H3K27Me3 peptide competition, AlphaScreen, read-out: (a) IC50 EED Alphascreen binding Qualified.
Setting [5] is: G-401, H3K27 methylation ELISA, read-out: (c) IC50 ELISA Qualified.

Read-outs that look alike come from different tables or passages of the source. A value given as a limit tells only on which side of the number the result lay.

T1 sequence (O75530 whole entry): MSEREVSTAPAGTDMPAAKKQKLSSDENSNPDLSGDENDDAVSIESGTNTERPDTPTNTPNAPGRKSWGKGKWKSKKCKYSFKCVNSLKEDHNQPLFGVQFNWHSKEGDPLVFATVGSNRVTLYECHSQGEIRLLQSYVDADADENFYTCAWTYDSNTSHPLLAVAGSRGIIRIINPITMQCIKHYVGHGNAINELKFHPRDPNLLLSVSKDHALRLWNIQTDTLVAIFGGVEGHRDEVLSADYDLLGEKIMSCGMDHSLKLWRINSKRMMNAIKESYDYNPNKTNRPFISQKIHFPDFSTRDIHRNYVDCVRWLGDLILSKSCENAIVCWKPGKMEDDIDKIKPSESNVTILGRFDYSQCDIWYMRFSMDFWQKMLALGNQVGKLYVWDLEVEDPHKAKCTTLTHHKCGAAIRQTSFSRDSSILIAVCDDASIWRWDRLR

Consider `COc1cc(CNc2ccc(-c3ccc(CN(C)C)cc3)c3nncn23)ccc1F` [Example 156, 8-(4-((dimethylamino)methyl)phenyl)-N-(4-fluoro-3-methoxybenzyl)-[1,2,4] triazolo[4,3-a]pyridin-5-amine], for which the IC50 – broadly, the concentration at which inhibition is half-maximal – at EED (1-441)-His protein (setting [2]) was 1350 nM; in assay [1] (setting [3]) it was 788 nM.

As to `COc1cc(F)cc(CNc2ccc(-c3ccc(CN(C)C)cc3)c3nncn23)c1` [Example 171, 8-(4-((dimethylamino)methyl)phenyl)-N-(3-fluoro-5-methoxybenzyl)-[1,2,4]triazolo[4,3-a]pyridin-5-amine], the IC50 was 839 nM at EED (1-441)-His protein (setting [2]) and 1100 nM in assay [1] (setting [3]).

As to `COc1ccccc1-c1ccc(NCc2c(F)cccc2OC)n2cnnc12` [Example 191, N-(2-fluoro-6-methoxybenzyl)-8-(2-methoxyphenyl)-[1,2,4]triazolo[4,3-a] pyridin-5-amine], the IC50 amounted to 479 nM at EED (1-441)-His protein (setting [4]) and 996 nM in assay [1] (setting [5]).

As to `COc1cccc(F)c1CNc1ccc(-c2ccccc2C(F)(F)F)c2nncn12` [Example 193, N-(2-fluoro-6-methoxybenzyl)-8-(2-(trifluoromethyl)phenyl)-[1,2,4]triazolo[4,3-a]pyridin-5-amine], the IC50 was determined as 283 nM at EED (1-441)-His protein (setting [4]) and 704 nM in assay [1] (setting [5]).

For the compound `COc1cccc(F)c1CNc1ccc(-c2cncc(C(C)O)c2)c2nncn12` (stereo not shown) [Example 197, 1-(5-(5-((2-fluoro-6-methoxybenzyl)amino)-[1,2,4]triazolo[4,3-a]pyridin-8-yl)pyridin-3-yl)ethanol], the figures for the IC50 (at EED (1-441)-His protein (setting [4]); in assay [1] (setting [5])) were 414 nM and 161 nM, respectively.

On to `COc1cccc(F)c1CNc1ccc(-c2cnccc2C(F)(F)F)c2nncn12` [Example 202, N-(2-fluoro-6-methoxybenzyl)-8-(4-(trifluoromethyl)pyridin-3-yl)-[1,2,4]triazolo[4,3-a] pyridin-5-amine], for which the values for the IC50 (at EED (1-441)-His protein (setting [4]); in assay [1] (setting [5])) were 270 nM and 318 nM, respectively.

On to `COc1cccc(F)c1CNc1ccc(-c2cncc(OCCS(C)(=O)=O)c2)c2nncn12` [Example 204, N-(2-fluoro-6-methoxybenzyl)-8-(5-(2-(methylsulfonyl)ethoxy)pyridin-3-yl)-[1,2,4]triazolo[4,3-a] pyridin-5-amine], for which the IC50 on EED (1-441)-His protein (setting [4]) is 143 nM; in assay [1] (setting [5]), 95.8 nM.

Take `COc1cccc(F)c1CNc1ccc(-c2cc(F)c(N)cc2F)c2nncn12` [Example 208, 8-(4-amino-2,5-difluorophenyl)-N-(2-fluoro-6-methoxybenzyl)-[1,2,4]triazolo[4,3-a]pyridin-5-amine]: the half-maximal inhibitory concentration (IC50) is 105 nM on EED (1-441)-His protein (setting [4]) and 140 nM in assay [1] (setting [5]).

For the compound `COc1cccc(F)c1CNc1ccc(-c2ccc(C#N)cc2C)c2nncn12` [Example 209, 4-(5-((2-fluoro-6-methoxybenzyl)amino)-[1,2,4]triazolo[4,3-a]pyridin-8-yl)-3-methylbenzonitrile], the figures for the IC50 (at EED (1-441)-His protein (setting [4]); in assay [1] (setting [5])) were 119 nM and 76.2 nM, respectively.

With `COc1cccc(F)c1CNc1ccc(-c2ccccc2C)c2nncn12` [Example 211, N-(2-fluoro-6-methoxybenzyl)-8-(o-tolyl)-[1,2,4] triazolo[4,3-a]pyridin-5-amine], the IC50 at EED (1-441)-His protein (setting [4]) turned out to be 103 nM; in assay [1] (setting [5]), 151 nM.

`COc1cccc(F)c1CNc1ccc(-c2ccc(Cl)cc2Cl)c2nncn12` [Example 224, 8-(2,4-dichlorophenyl)-N-(2-fluoro-6-methoxybenzyl)-[1,2,4]triazolo[4,3-a]pyridin-5-amine]: the IC50 at EED (1-441)-His protein (setting [4]) was determined as 137 nM; in assay [1] (setting [5]) it was 220 nM.

`COc1ccc(F)c(F)c1CNc1ccc(-c2cccnc2)c2nncn12` [Example 242, N-(2,3-difluoro-6-methoxybenzyl)-8-(pyridin-3-yl)-[1,2,4]triazolo[4,3-a]pyridin-5-amine]: the 50% inhibitory concentration (IC50) at EED (1-441)-His protein (setting [4]) amounted to 177 nM; in assay [1] (setting [5]), 454 nM.

As for `COc1ccc(F)c(F)c1CNc1ccc(-c2ccncc2)c2nncn12` [Example 243, N-(2,3-difluoro-6-methoxybenzyl)-8-(pyridin-4-yl)-[1,2,4]triazolo[4,3-a]pyridin-5-amine], the IC50 at EED (1-441)-His protein (setting [4]) was found to be 329 nM; in assay [1] (setting [5]), 349 nM.

For the compound `COc1ccc(F)c(F)c1CNc1ccc(-c2ccc(S(C)(=O)=O)cc2)c2nncn12` [Example 244, N-(2,3-difluoro-6-methoxybenzyl)-8-(4-(methylsulfonyl)phenyl)-[1,2,4]triazolo[4,3-a]pyridin-5-amine], the IC50 at EED (1-441)-His protein (setting [4]) came to 231 nM; in assay [1] (setting [5]), 277 nM.

Turning to `CCc1ccccc1-c1ccc(NCc2c(F)cccc2OC)n2cnnc12` [Example 254, 8-(2-ethylphenyl)-N-(2-fluoro-6-methoxybenzyl)-[1,2,4]triazolo[4,3-a]pyridin-5-amine], the IC50 was 263 nM on EED (1-441)-His protein (setting [4]) and 761 nM in assay [1] (setting [5]).

Turning to `COc1cccc(F)c1CNc1ccc(-c2cn(C(C)C)nc2C(F)(F)F)c2nncn12` [Example 255, N-(2-fluoro-6-methoxybenzyl)-8-(1-isopropyl-3-(trifluoromethyl)-1H-pyrazol-4-yl)-[1,2,4]triazolo[4,3-a] pyridin-5-amine], the results for the IC50 (at EED (1-441)-His protein (setting [4]); in assay [1] (setting [5])) were 189 nM and 76.8 nM, respectively.

Consider `COc1cccc(F)c1CNc1ccc(-c2ccccc2C(C)C)c2nncn12` [Example 257, N-(2-fluoro-6-methoxybenzyl)-8-(2-isopropylphenyl)-[1,2,4]triazolo[4,3-a] pyridin-5-amine], for which the IC50 is 906 nM at EED (1-441)-His protein (setting [4]) and not below 62500 nM in assay [1] (setting [5]).

Take `COc1cccc(F)c1CNc1ccc(-c2cnc(N3CCOCC3)nc2C)c2nncn12` [Example 261, N-(2-fluoro-6-methoxybenzyl)-8-(4-methyl-2-morpholinopyrimidin-5-yl)-[1,2,4]triazolo[4,3-a]pyridin-5-amine]: the results for the IC50 (at EED (1-441)-His protein (setting [4]); in assay [1] (setting [5])) were 17.6 nM and 7.8 nM, respectively.

Regarding `COc1cccc(F)c1CNc1ccc(-c2cnc(N3CCOCC3)cc2C)c2nncn12` [Example 262, N-(2-fluoro-6-methoxybenzyl)-8-(4-methyl-6-morpholinopyridin-3-yl)-[1,2,4]triazolo[4,3-a]pyridin-5-amine], the values for the half-inhibitory concentration (IC50) (at EED (1-441)-His protein (setting [4]); in assay [1] (setting [5])) were 12.4 nM and 15.6 nM, respectively.

For the compound `COc1cccc(F)c1CNc1ccc(-c2ccc(Cl)nc2C)c2nncn12` [Example 263, 8-(6-chloro-2-methylpyridin-3-yl)-N-(2-fluoro-6-methoxybenzyl)-[1,2,4]triazolo[4,3-a] pyridin-5-amine], the figures for the 50% inhibitory concentration (IC50) (on EED (1-441)-His protein (setting [4]); in assay [1] (setting [5])) were 16.9 nM and 15.4 nM, respectively.

Take `COc1cccc(F)c1CNc1ccc(-c2ccnc(C(F)(F)F)c2)c2nncn12` [Example 264, N-(2-fluoro-6-methoxybenzyl)-8-(2-(trifluoromethyl)pyridin-4-yl)-[1,2,4]triazolo[4,3-a] pyridin-5-amine]: the IC50 on EED (1-441)-His protein (setting [4]) was 14.8 nM; in assay [1] (setting [5]), 14.7 nM.

Take `COc1cc(CNc2ccc(-c3cccnc3C)c3nncn23)c(F)cc1F` [Example 285, N-(2,4-difluoro-5-methoxybenzyl)-8-(2-methylpyridin-3-yl)-[1,2,4]triazolo[4,3-a] pyridin-5-amine]: the IC50 at EED (1-441)-His protein (setting [4]) was 176 nM; in assay [1] (setting [5]), 112 nM.

As for `COc1ccc(F)c(F)c1CNc1ccc(-c2cccnc2C)c2nncn12` [Example 286, N-(2,3-difluoro-6-methoxybenzyl)-8-(2-methylpyridin-3-yl)-[1,2,4]triazolo[4,3-a] pyridin-5-amine], the figures for the half-maximal inhibitory concentration (IC50) (at EED (1-441)-His protein (setting [4]); in assay [1] (setting [5])) were 112 nM and 115 nM, respectively.

In the case of `COc1ccc(F)c(CNc2ccc(-c3cccnc3C)c3nncn23)c1` [Example 291, N-(2-fluoro-5-methoxybenzyl)-8-(2-methylpyridin-3-yl)-[1,2,4]triazolo[4,3-a] pyridin-5-amine], the IC50 on EED (1-441)-His protein (setting [4]) was found to be 184 nM; in assay [1] (setting [5]), 84.9 nM.

Consider `CCc1ccncc1-c1ccc(NCc2c(F)cc(F)cc2OC)n2cnnc12` [Example 307, N-(2,4-difluoro-6-methoxybenzyl)-8-(4-ethylpyridin-3-yl)-[1,2,4]triazolo[4,3-a] pyridin-5-amine], for which the results for the IC50 (on EED (1-441)-His protein (setting [4]); in assay [1] (setting [5])) were 205 nM and 226 nM, respectively.

As to `COc1cccc(F)c1CNc1c(F)cc(-c2cccnc2C)c2nncn12` [Example 311, 6-fluoro-N-(2-fluoro-6-methoxybenzyl)-4-(2-methylpyridin-3-yl)-[1,2,4] triazolo[4,3-a]pyridin-7-amine], the IC50 worked out at 420 nM on EED (1-441)-His protein (setting [4]) and 833 nM in assay [1] (setting [5]).

Turning to `COc1cc(C)c(-c2ccc(NCc3c(F)cc(F)cc3OC)n3cnnc23)cn1` [Example 318, N-(2,4-difluoro-6-methoxybenzyl)-8-(6-methoxy-4-methylpyridin-3-yl)-[1,2,4] triazolo[4,3-a]pyridin-5-amine], the IC50 (at EED (1-441)-His protein (setting [4]); in assay [1] (setting [5])) was 71.6 nM in each case.

In the case of `COc1cc(F)cc(F)c1CNc1c(F)cc(-c2cccnc2C)c2nncn12` [Example 320, N-(2,4-difluoro-6-methoxybenzyl)-6-fluoro-8-(2-methylpyridin-3-yl)-[1,2,4]triazolo [4,3-a]pyridin-5-amine], the IC50 came to 425 nM on EED (1-441)-His protein (setting [4]) and 434 nM in assay [1] (setting [5]).

Consider `COc1cc(F)cc(F)c1CNc1c(F)cc(-c2cnc(C)nc2C)c2nncn12` [Example 321, N-(2,4-difluoro-6-methoxybenzyl)-8-(2,4-dimethylpyrimidin-5-yl)-6-fluoro-[1,2,4]triazolo[4,3-a]pyridin-5-amine], for which the IC50 at EED (1-441)-His protein (setting [4]) was found to be 2660 nM; in assay [1] (setting [5]), 1530 nM.
